US20250250230A1, “HETEROCYCLIC COMPOUND” (TAKEDA PHARMACEUTICAL COMPANY LIMITED, priority 2022, published 2025)

What follows are compounds tested against T1, human orexin type 2 receptor (Homo sapiens, UniProt O43614) (assay: Measurement of orexin type 2 receptor agonist activity (calcium fluorescence, Fluo-4 AM, FDSS)). Settings: test compound 3 μM; CHO cells expressing human OX2 receptor; DMSO = 0%, orexin A (human) = 100%.
T1 construct: expressed in transfected cells
T1 sequence (O43614 1-444): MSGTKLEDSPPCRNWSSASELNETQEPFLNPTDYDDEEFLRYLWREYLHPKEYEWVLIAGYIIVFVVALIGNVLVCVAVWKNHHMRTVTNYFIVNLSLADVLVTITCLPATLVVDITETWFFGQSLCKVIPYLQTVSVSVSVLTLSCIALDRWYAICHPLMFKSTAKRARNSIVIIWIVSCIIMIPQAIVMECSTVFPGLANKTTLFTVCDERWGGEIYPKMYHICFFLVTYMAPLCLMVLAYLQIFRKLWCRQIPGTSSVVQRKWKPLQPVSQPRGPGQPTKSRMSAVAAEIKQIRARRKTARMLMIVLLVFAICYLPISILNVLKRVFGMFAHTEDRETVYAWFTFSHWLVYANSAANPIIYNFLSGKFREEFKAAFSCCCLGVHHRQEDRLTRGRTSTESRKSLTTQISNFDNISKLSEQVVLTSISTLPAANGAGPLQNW
Assay type: cell-based
In short: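 CHO-K1 cells stably expressing human OX2R were loaded with Fluo-4 AM (30 min 37 °C, 30 min RT) in HEPES-buffered HBSS with 0.1% BSA and probenecid. Calcium fluorescence was followed on FDSS for 2 min after compound addition; activity normalised to DMSO (0%) and 10 nM orexin A (100%).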

| SMILES | OX2R agonist activity (3 μM, %) |
| --- | --- |
| CN(C)S(=O)(=O)N[C@H]1CCN(C(=O)[C@@H]2C[C@H]2c2ccccc2-c2c(F)cccc2F)C1 [Example 289, N′-{(3S)-1-[(1R,2R)-2-(2′,6′-difluoro[1,1′-biphenyl]-2-yl)cyclopropane-1-carbonyl]pyrrolidin-3-yl}-N,N-dimethylsulfuric diamide] | 99% |
| CCS(=O)(=O)NC1COCCN(C(=O)[C@@H]2C[C@H]2c2ccccc2-c2c(F)cccc2F)C1 (stereo partly drawn) [Example 294, N-{(6S)-4-[(1R,2R)-2-(2′,6′-difluoro [1,1′-biphenyl]-2-yl)cyclopropane-1-carbonyl]-1,4-oxazepan-6-yl}ethanesulfonamide, or N-{(6R)-4-[(1R,2R)-2-(2′,6′-difluoro[1,1′-biphenyl]-2-yl)cyclopropane-1-carbonyl]-1,4-oxazepan-6-yl}ethanesulfonamide] | 104% |
| CN(C)S(=O)(=O)NC1COCCN(C(=O)[C@@H]2C[C@H]2c2ccccc2-c2c(F)cccc2F)C1 (stereo partly drawn) [Example 295, N′-{(6S)-4-[(1R,2R)-2-(2′,6′-difluoro[1,1′-biphenyl]-2-yl)cyclopropane-1-carbonyl]-1,4-oxazepan-6-yl}-N,N-dimethylsulfuric diamide, or N′-{(6R)-4-[(1R,2R)-2-(2′,6′-difluoro[1,1′-biphenyl]-2-yl)cyclopropane-1-carbonyl]-1,4-oxazepan-6-yl}-N,N-dimethylsulfuric diamide] | 100% |
| CC1C(NS(C)(=O)=O)CCN1C(=O)[C@@H]1C[C@H]1c1ccccc1-c1c(F)cccc1F (stereo partly drawn) [Example 297, N-{(2R,3R)-1-[(1R,2R)-2-(2′,6′-difluoro[1,1′-biphenyl]-2-yl)cyclopropane-1-carbonyl]-2-methylpyrrolidin-3-yl}methanesulfonamide, or N-{(2S,3S)-1-[(1R,2R)-2-(2′,6′-difluoro[1,1′-biphenyl]-2-yl)cyclopropane-1-carbonyl]-2-methylpyrrolidin-3-yl}methanesulfonamide] | 101% |
| CN(C)S(=O)(=O)NC[C@H]1CCN1C(=O)[C@@H]1C[C@H]1c1ccccc1-c1c(F)cccc1F [Example 298, N′-({(2R)-1-[(1R,2R)-2-(2′,6′-difluoro[1,1′-biphenyl]-2-yl)cyclopropane-1-carbonyl]azetidin-2-yl}methyl)-N,N-dimethylsulfuric diamide] | 100% |
| CN(C)S(=O)(=O)NC[C@@H]1CN(C(=O)[C@@H]2C[C@H]2c2ccccc2-c2c(F)cccc2F)CCO1 [Example 299, N′-({(2S)-4-[(1R,2R)-2-(2′,6′-difluoro[1,1′-biphenyl]-2-yl)cyclopropane-1-carbonyl]morpholin-2-yl}methyl)-N,N-dimethylsulfuric diamide] | 90% |
| CN(C)S(=O)(=O)N[C@H]1CCCN(C(=O)[C@@H]2C[C@H]2c2ccccc2-c2c(F)cccc2F)C1 [Example 302, N′-{(3S)-1-[(1R,2R)-2-(2′,6′-difluoro[1,1′-biphenyl]-2-yl)cyclopropane-1-carbonyl]piperidin-3-yl}-N,N-dimethylsulfuric diamide] | 97% |
| CCS(=O)(=O)N[C@H]1CCCN(C(=O)[C@@H]2C[C@H]2c2c(F)cccc2-c2c(F)cccc2F)C1 [Example 307, N-{(3S)-1-[(1R,2R)-2-(2′,3,6′-trifluoro[1,1′-biphenyl]-2-yl)cyclopropane-1-carbonyl]piperidin-3-yl}ethanesulfonamide] | 100% |
| CN(C)S(=O)(=O)N[C@H]1CCN(C(=O)[C@@H]2C[C@H]2c2c(F)cccc2-c2c(F)cccc2F)C1 [Example 309, N,N-dimethyl-N′-{(3S)-1-[(1R,2R)-2-(2′,3,6′-trifluoro[1,1′-biphenyl]-2-yl)cyclopropane-1-carbonyl]pyrrolidin-3-yl}sulfuric diamide] | 97% |
| CN(C)S(=O)(=O)N[C@H]1CCCN(C(=O)[C@@H]2C[C@H]2c2c(F)cccc2-c2c(F)cccc2F)C1 [Example 312, N,N-dimethyl-N′-{(3S)-1-[(1R,2R)-2-(2′,3,6′-trifluoro[1,1′-biphenyl]-2-yl)cyclopropane-1-carbonyl]piperidin-3-yl}sulfuric diamide] | 100% |
| CN(C)S(=O)(=O)NC[C@@H]1CCN1C(=O)C1CC1c1c(F)cccc1-c1c(F)cccc1F (stereo partly drawn) [Example 314, N,N-dimethyl-N′-({(2S)-1-[(1R,2R)-2-(2′,3,6′-trifluoro[1,1′-biphenyl]-2-yl)cyclopropane-1-carbonyl]azetidin-2-yl}methyl)sulfuric diamide, or N,N-dimethyl-N′-({(2S)-1-[(1S,2S)-2-(2′,3,6′-trifluoro[1,1′-biphenyl]-2-yl)cyclopropane-1-carbonyl]azetidin-2-yl}methyl)sulfuric diamide] | 99% |
| C[C@H]1C[C@H](NS(C)(=O)=O)CN1C(=O)C1(C)CC1c1ccccc1-c1c(F)cccc1F (stereo partly drawn) [Example 315, N-{(3S,5S)-1-[(1R,2S)-2-(2′,6′-difluoro[1,1′-biphenyl]-2-yl)-1-methylcyclopropane-1-carbonyl]-5-methylpyrrolidin-3-yl}methanesulfonamide, or N-{(3S,5S)-1-[(1S,2R)-2-(2′,6′-difluoro[1,1′-biphenyl]-2-yl)-1-methylcyclopropane-1-carbonyl]-5-methylpyrrolidin-3-yl}methanesulfonamide] | 91% |
| Cc1ccc(C2CC2C(=O)N2CC[C@H](NS(C)(=O)=O)C2)c(-c2c(F)cccc2F)c1 (stereo partly drawn) [Example 318, N-{(3S)-1-[(1R,2R)-2-(2′,6′-difluoro-5-methyl [1,1′-biphenyl]-2-yl)cyclopropane-1-carbonyl]pyrrolidin-3-yl}methanesulfonamide, or N-{(3S)-1-[(1S,2S)-2-(2′,6′-difluoro-5-methyl[1,1′-biphenyl]-2-yl)cyclopropane-1-carbonyl]pyrrolidin-3-yl}methanesulfonamide] | 96% |
| CS(=O)(=O)N[C@H]1C[C@H](O)CN(C(=O)[C@@H]2C[C@H]2c2ccccc2-c2c(F)cccc2F)C1 [Example 319, N-{(3S,5S)-1-[(1R,2R)-2-(2′,6′-difluoro[1,1′-biphenyl]-2-yl)cyclopropane-1-carbonyl]-5-hydroxypiperidin-3-yl}methanesulfonamide] | 101% |
| CO[C@@H]1CN(C(=O)[C@@H]2C[C@H]2c2ccccc2-c2c(F)cccc2F)C[C@H]1NS(C)(=O)=O [Example 323, N-{(3R,4R)-1-[(1R,2R)-2-(2′,6′-difluoro[1,1′-biphenyl]-2-yl)cyclopropane-1-carbonyl]-4-methoxypyrrolidin-3-yl}methanesulfonamide] | 96% |
| CS(=O)(=O)N[C@H]1CCN(C(=O)C2(F)CC2c2ccccc2-c2c(F)cccc2F)C1 (stereo partly drawn) [Example 324, N-{(3S)-1-[(1R,2R)-2-(2′,6′-difluoro[1,1′-biphenyl]-2-yl)-1-fluorocyclopropane-1-carbonyl]pyrrolidin-3-yl}methanesulfonamide, or N-{(3S)-1-[(1S,2S)-2-(2′,6′-difluoro[1,1′-biphenyl]-2-yl)-1-fluorocyclopropane-1-carbonyl]pyrrolidin-3-yl}methanesulfonamide] | 96% |
| CS(=O)(=O)N[C@H]1CCCN(C(=O)C2(F)CC2c2ccccc2-c2c(F)cccc2F)C1 (stereo partly drawn) [Example 325, N-{(3S)-1-[(1R,2R)-2-(2′,6′-difluoro[1,1′-biphenyl]-2-yl)-1-fluorocyclopropane-1-carbonyl]piperidin-3-yl}methanesulfonamide, or N-{(3S)-1-[(1S,2S)-2-(2′,6′-difluoro[1,1′-biphenyl]-2-yl)-1-fluorocyclopropane-1-carbonyl]piperidin-3-yl}methanesulfonamide] | 96% |
| O=C([C@@H]1C[C@H]1c1ccccc1-c1c(F)cccc1F)N1CC[C@H](NS(=O)(=O)N2CCC2)C1 [Example 326, N-{(3S)-1-[(1R,2R)-2-(2′,6′-difluoro[1,1′-biphenyl]-2-yl)cyclopropane-1-carbonyl]pyrrolidin-3-yl}azetidine-1-sulfonamide] | 89% |
| CC1(C(=O)N2CCC2CNS(C)(=O)=O)CC1c1ccccc1-c1c(F)cccc1F (stereo not drawn) [Example 327, N-({1-[2-(2′,6′-difluoro[1,1′-biphenyl]-2-yl)-1-methylcyclopropane-1-carbonyl]azetidin-2-yl}methyl)methanesulfonamide optical isomer] | 100% |
| CS(=O)(=O)N[C@H]1CCN(C(=O)C2C(c3ccccc3-c3c(F)cccc3F)C2(F)F)C1 (stereo partly drawn) [Example 328, N-{(3S)-1-[(1R,3R)-3-(2′,6′-difluoro[1,1′-biphenyl]-2-yl)-2,2-difluorocyclopropane-1-carbonyl]pyrrolidin-3-yl}methanesulfonamide, or N-{(3S)-1-[(1R,3R)-3-(2′,6′-difluoro[1,1′-biphenyl]-2-yl)-2,2-difluorocyclopropane-1-carbonyl]pyrrolidin-3-yl}methanesulfonamide] | 94% |
